Results taken from patent US6841385B2, “Transcription factor E2F DNA-binding domain inhibitor peptides and their use” (Topotarget UK Limited, priority 1999, dated 2005).
Bridge positions count the residues as written; N and C are the ends. Square brackets hold non-standard residues; d marks the D form. Ends that are not written are not given here. I, II: the chains in the order shown. βAla = NCCC(=O)O

What was measured:
[1] = system: HL60 cells; experiment: Growth of HL60 cells treated with peptide; format: cell-based
Method: (§1) HeLa cells were grown in Dulbecco's Modified Eagle's Medium (DMEM) supplemented with fetal calf serum (FCS) and HL60 cells in RPMI 1640 supplemented with 10% FCS. Cells were treated with peptides in culture medium and incubated overnight before harvesting.
(§2) HeLa, 3T3, W138 cells were treated with varying concentration of MAP-4-SEQ ID NO:2-TAT and a control peptide MAP-4-SEQ ID NO:39-TAT wherein SEQ ID NO:39 is SEQ ID NO:2 but containing 2 alanine substitutions at positions 1 and 4, i.e. AVRAHF (SEQ ID NO:39) DNA replication was analysed by BrdU incorporation after 24 hours.
(§3) Effects became visible after 5-24 hours defending on the concentration of the peptide.

[2] = system: C33A (cervical carcinoma); experiment: BrDU proliferation assay, C33A cells; format: cell-based; conditions: 24 hrs, dose-dependent
Method: (§4) Four tumor cell lines U2OS (osteosarcoma), C33A (cervical carcinoma), HeLa (cervical carcinoma) and E2F4/ras (derived from primary rat embryo fibroblasts) were treated with the branched peptide MAP-4-SEQ ID NO:2-TAT or mutant control peptide MAP-4-SEQ ID NO:39-TAT for 24 hrs. Cell proliferation was measured using the BrDU proliferation assay from Boehringer Mannheim (Cat No. 1 647 229).

[3] = system: CycA promoter; experiment: Transcription from the CycA promoter, HeLa cells transiently transfected with CycA-Luciferase construct; format: cell-based
Description: (§5) This finding is in agreement with the anti-repressor function of E2F in the CycA promoter, (Liu et al, Oncogene (1998), 16, 2957-2963).

[4] = system: SV-40 promoter; experiment: Transcription from the SV-40 promoter (control), HeLa cells; format: cell-based
Description: as §5

[5] = system: HL60 cells; experiment: Nuclease-laddering assay (DNA laddering) in HL60 cells; format: cell-based
Method: Treated cells were collected, washed with PBS, resuspended in lysis buffer (50 mM Tris pH 7.9, 100 mM EDTA, pH 8, 100 mM NaCl, 1% SDS) and 500 μg/ml proteinase K and incubated at 55° C. for 18 h. Cells were then incubated with […] for 1 hour at 37° C., genomic DNA was purified and examined by agarose gel electrophoresis.
as §3

[6] = system: HL60 cells; experiment: Apoptosis, staining of HL60 cells with Heochst 33342 propidium iodide; format: cell-based
Method: as §3

[7] = system: E2F4/ras (derived from primary rat embryo fibroblasts); experiment: BrDU proliferation assay, E2F4/ras cells; format: cell-based; conditions: 24 hrs, dose-dependent
Method: as §4

[8] = system: HeLa cells; experiment: BrdU incorporation cell proliferation assay, HeLa cells; format: cell-based; conditions: 24 hrs, dose-dependent
Method: as §1
The peptides were tested in further experiments for their effect on cell cycle progression and cell viability. For this purpose, the peptides were conjugated at their C-terminus to a cell penetrating HIV-Tat derived peptide (aa 48-60) (Fawell et al. (1994) Proc. Natl. Acad. Sci. USA 91, 664-668).
as §2, §4

[9] = system: U2OS (osteosarcoma); experiment: BrDU proliferation assay, U2OS cells; format: cell-based; conditions: 24 hrs, dose-dependent
Method: as §4

[10] = molecular target: T1, recombinant E2F1 N1-His (64-301) with DP1 N2-GST (84-249) (human, UniProt Q01094 64-301; Q14186 84-249); experiment: band shift, recombinant E2F1 and DP1, displacement of 32P B-myb E2F-site probe
T1 construct: range 64-301;range 84-249; Both proteins were incubated together at 10 ug/ml in the band shift assay with a 32P-labelled B-myb E2F-site probe; also called recombinant E2F1 and DP1; not shown: His tag from vector pET28b; GST fusion partner
T1 sequence (Q01094 64-301, chain 1 of 2): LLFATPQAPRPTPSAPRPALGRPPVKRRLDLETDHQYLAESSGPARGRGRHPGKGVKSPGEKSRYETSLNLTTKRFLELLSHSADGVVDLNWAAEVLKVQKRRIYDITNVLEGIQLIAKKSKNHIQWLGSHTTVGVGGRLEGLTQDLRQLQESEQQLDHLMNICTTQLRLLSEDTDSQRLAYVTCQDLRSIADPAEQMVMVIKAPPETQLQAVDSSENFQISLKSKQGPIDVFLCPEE
T1 sequence (Q14186 84-249, chain 2 of 2): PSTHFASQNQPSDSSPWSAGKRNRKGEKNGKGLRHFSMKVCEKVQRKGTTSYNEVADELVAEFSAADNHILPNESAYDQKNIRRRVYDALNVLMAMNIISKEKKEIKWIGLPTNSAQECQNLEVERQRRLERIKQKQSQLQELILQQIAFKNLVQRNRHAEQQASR

[11] = molecular target: T1, recombinant E2F1 N1-His (64-301) with …; experiment: deletion analysis; inhibition of E2F DNA binding (band shift)
Method: Probes were labelled by filling-in 5' overhanging ends of 4–7 bases. Samples were run on 4% non denaturing polyacrylamide gel in 0.5% TBE at 4° C. Gels were exposed to X-ray films. […] The samples were then incubated for 10 minutes at 30° C. and cooled on ice. ^32P-labelled probe was added, the reaction mixtures were incubated for another 10 minutes at 30° C. and then cooled on ice.

Molecule: I: WVRWHFGRKKRRQRRRPPQKK[βAla] / II: WVRWHFGRKKRRQRRRPPQK / III: WVRWHFGRKKRRQRRRPPQ / IV: WVRWHFGRKKRRQRRRPPQ (amide I:20-IV:C, I:21-II:C, II:20-III:C) [MAP-4-SEQ ID NO:2-TAT]
- inhibition of cell proliferation / cell growth ([1]; HL60 cells, concentrations between 1-5 μM): Inhibition of cell proliferation
- time after which effects became visible ([1]; depending on the concentration of the peptide): 5 to 24 h
- inhibition of proliferation [2]: inhibited proliferation
- effect on transcription from CycA-Luciferase construct [3]: Inhibition of transcription
- effect on the SV-40 promoter [4]: No effect
- DNA laddering [5]: internucleosomal DNA cleavage
- hallmarks of apoptosis after staining [6]: chromatin condensation and nuclear fragmentation
- inhibition of proliferation [7]: inhibited proliferation
- inhibition of proliferation [8]: inhibited proliferation
- inhibition of proliferation [9]: inhibited proliferation

B1: peptide SEQ ID NO:4 (IWLSGLSRGVWVSFP) (peptide)
peptide: IWLSGLSRGVWVSFP
notes: Synthetic peptide in the band shift assays
- binding result [10]: binds

B2: SEQ5-7 (3-13) (RILTFRSGSWY) (peptide)
peptide: RILTFRSGSWY
notes: also called core-region consisting of amino acids 3-13
- inhibitory activity relative to SEQ ID NO:5 [11]: ~50%
